Results reported in patent US20210333263A1, “REDOX ACTIVATABLE FLUORESCENT SENSORS” (The Board of Regents of the University of Texas System, priority 2016, published 2021).

B1: OVA^qRAS: Ovalbumin labeled by qRAS (conjugate, UniProt P01012 2-386, looked up)
Ovalbumin: GSIGAASMEFCFDVFKELKVHHANENIFYCPIAIMSALAMVYLGAKDSTRTQINKVVRFDKLPGFGDSIEAQCGTSVNVHSSLRDILNQITKPNDVYSFSLASRLYAEERYPILPEYLQCVKELYRGGLEPINFQTAADQARELINSWVESQTNGIIRNVLQPSSVDSQTAMVLVNAIVFKGLWEKAFKDEDTQAMPFRVTEQESKPVQMMYQIGLFRVASMASEKMKILELPFASGTMSMLVLLPDEVSGLEQLESIINFEKLTEWTSSNVMEERKIKVYLPRMKMEEKYNLTSVLMAMGITDVFSSSANLSGISSAESLKISQAVHAAHAEINEAGREVVGSAEAGVDAASVSEEFRADHPFLFCIKHIATNAVLFFGRCVSP
modifications: qRAS label

Tests used:
A549 lung cancer cells = test: High-throughput quantification of cytosolic delivery of qRAS-labeled protein on a plate reader; assay type: cell-based; conditions: cells pretreated with 50 μM NEM for 30 min, then JetPEI and OVA^qRAS
Description: A549 cancer cells were seeded into 96-well black plate at a density of 10,000 cells per well and incubated for 24 hr. The polymer solution (100 μg/mL) and qRAS-labeled protein (OVA^qRAS or IgG^qRAS, 25 μg/mL) were co-incubated with cells for 40 min at 37° C. The cells were washed twice with PBS (pH 7.4) and cultured in complete culture medium. The fluorescence of TMR and Cy5 were measured on a Tecan fluorescent plate reader at different times. At 24 hr, 5 mM DTT was added to cleave the intracellular disulphide bond and completely release the TMR signal. The excitation and emission settings: TMR: Ex: 545 nm with bandwidth 9 nm, Em: 595 nm with bandwidth 20 nm; Cy5: Ex: 640 nm with bandwidth 9 nm, Em: 690 nm with bandwidth 20 nm.
The activation percentage (%) of OVA^qRAS was calculated using the equation described below:
Activation (%)=(FTMR−F0)/(FTMR,DTT−F0)*100
where FTMR is the fluorescence intensity of TMR at different times, FTMR,DTT is the fluorescence intensity of TMR after the addition of DTT at 24 hr, and F0 is the background of TMR fluorescence.
For the N-ethylmaleimide (NEM) blocking experiments, the same procedures were used except that the cells were pretreated with 50 μM NEM for 30 min prior to the treatment with polymer and OVA^qRAS.

[1] = Fluorescence emission as a function of pH in PBS; assay type: physicochemical; conditions: pH 4.0 to 8.0, PBS, 6 hours
Description: Samples were excited at 390 nm.
FIG. 9 show the normalized fluorescence emission ratio of OVA^qRAS in PBS at different pH. OVA^qRAS (0.5 mg/mL) was incubated in PBS with different pH for 6 hours. The fluorescence emission spectra of TMR and Cy5 were recorded using a Hitachi fluorometer with excitation wavelength at 550 nm and 640 nm, respectively.

Molecule	fluorescence signals of OVA^qRAS after NEM pretreatment (A549 lung cancer cells)	TMR/Cy5 ratio across pH range [1]
CCN1C(=O)C=CC1=O [N-ethylmaleimide]	significant suppression of fluorescence signals	–
B1	–	remained constant
